Measured values from US11596623B2, “Methods for treating virus infection or proliferation” (HOWARD UNIVERSITY, priority 2018, dated 2023).

Columns and labels:
HSV-1 ICP0 = assay: Real-time RT-PCR of HSV-1 ICP0 transcript in HEp-2 cells; type: cell-based; conditions: 12 and 24 hpi, versus DMSO
Text: The total transcript levels were quantified using actin expression as an internal control. The cDNA obtained immediately after the virus and drug transfection(s) was set as a baseline value. The normalized expression values were transformed to the log 10 value. The data plot represents mean t standard error calculated from three replicates.
Following instructions of the manufacturers, total RNA was isolated using Tri Reagent® (Ambion, Inc., Austin, Tex.). To quantitatively examine the mRNA level of HSV-1 ICP0 from the infected cells, real-time RT-PCR was undertaken using the QuantiTect SYBR Green RT-PCR kit (QIAGEN, Valencia, Calif.). […] Fluorescence (captured at 80° C.) was determined to be absent from the signal generated by primer dimers. Data were collected and recorded by the BIORAD CFX Manager software. The relative quantity of the ICP0 transcripts at the indicated time points was normalized to the relative quantity of the reference gene actin at the same time points and then the log10 copy number of the normalized RNA transcripts were calculated and presented on a bar chart. A melting temperature curve analysis was obtained by measuring (after the amplification cycles) the fluorescence during a period of warming from 60° C. to 95° C. […]

[1] = biological target: T1, recombinant RACK1A protein (Oryza sativa subsp. japonica, UniProt Q6L4F8); assay: Surface Plasmon Resonance (SPR) binding assay; parameters: species or system rice; conditions: immobilized recombinant RACK1A, KD50=kd/ka
T1 construct: His tag (C); made in house; host or cells: E. coli BL21(DE3)
Protocol: SD-29 (left panel) and SD-29-12 (right panel) were separately injected three times on the CM5 chip at 0, 1.56 μM, at 3.13 μM, 6.25 μM, 12.5 μM, 25 μM, 50 μM, and 100 μM (top sensor) concentrations (left panel) and at 3.13 μM, 6.25 μM, 12.5 μM, 25 μM, 50 μM, and 100 μM (top sensor) concentrations (right panel).
To obtain in vitro confirmation of the binding of the isolated compounds to the purified RACK1 protein, the small compound SD-29 and its structural analog SD29-12 were evaluated for their binding potential with the recombinant RACK1A proteins using the Surface Plasmon Resonance (SPR) chip. SPR experiments were carried out with a Biacore T200 equipped with a CM5 sensor chip. Briefly, recombinant RACK1A cysteine-tagged protein was immobilized on flow cell (FC) 2 in HEPES buffered saline (10 mM Hepes, pH 7.4, and 150 mM NaCl, 3 mM CaCl2)) using a thiol-coupling kit according to the manufacturer's protocol, resulting in immobilization levels of 4580 response units (RU). FC1 was only activated and inactivated and used as a reference. SD-29 stock solution was diluted to a final concentration of 100, 75, 50, 25, 10 μM and 1 μM injected in 10 mM Hepes, 150 mM NaCl, 3 mM CaCl2), 1% DMSO, and 0.5% P20. Each injection was repeated three times for 60 s. […] KD50 is calculated by the equation: KD50=kd/ka; kd—dissociation rate constant, ka—association rate constant. […]

HEp-2 cells = assay: Trypan blue exclusion cell viability; type: cell-based; conditions: 24-hour treatment
Protocol: In order to assess whether the compounds are producing any toxicity that can led to the cell deaths, we evaluated the cell viability by the trypan blue exclusion method. As long-term inhibition of RACK1 expression has been reported to cell cycle arrest, we limited our experimental treatments to 24 h and evaluated the cell viability of almost full confluent cells after 24 h of compound treatment.
In table 2, the viability of cells was measured with Trypan blue exclusion assay in a Cellometer (Nexcelom, Lawrence, Mass.). The percentage survival of the compound treated cells was evaluated along with the DMSO treated cells. The values represent the mean±SE of three separate well based replicates.

RACK1A protein = assay: RACK1 protein expression under salt stress, western blot; type: in vivo; conditions: Arabidopsis lysates
Text: The abundant leaf protein Rubisco large subunit (RbcL) was used as a loading control for the blot. The 37 kD RACK1 band was absent from the genetic knockout of RACK1 plants (double mutant-rack1ab lane).
The reported positive expression of RACK1A protein under salt stress condition in Arabidopsis has led us to examine the RACK1A expression in the presence and absence of the inhibitor compounds during salt stresses. We determined that the RACK1A protein expression was specifically modulated by the inhibitor compounds when the lysates with salt or without salt in the presence and absence of the small compounds were probed with an antibody raised by using the full length RACK1A protein as antigen (Agrisera, Vännäs, Sweden, FIG. 2C). […] However, whether the effect of SD29-12 is Arabidopsis salt stress specific condition needs further experimental evidence. As the antibody cross-reacts with all three RACK1 isoforms in Arabidopsis, we used the double knockout (rack1ab) as a negative control on the blot (triple mutant is lethal at the early seedling stage). The large subunit of the abundant leaf protein rubisco (RbcL) was used as loading control for this blot. As the results support the in-silico based prediction, we set out to investigate the effect of the compounds on the mammalian RACK1 based virus proliferation.

HSV-1 = assay: Plaque formation unit (pfu) assay; type: cell-based
Protocol: The viral plaque assay was performed as previously described [Tang Q, Li L, Ishov A M, Revol V, Epstein A L, Maul G G. Determination of minimum herpes simplex virus type 1 components necessary to localize transcriptionally active DNA to ND10. J Virol. 2003; 77:5821-28.] with slight modifications. The HSV-1 strain 17 was diluted serially in a volume of 1 mL. Then 300 ul of the virus was added onto confluent HEp-2 cell monolayers in 12-well plates; each dilution had 3 wells. After adsorption for 2 h, the medium was removed and the cells were washed twice with serum-free DMEM and overlaid with phenol-free DMEM containing 5% FCS, 0.5% low-melting point agarose (GIBCO), and 1% penicillin-streptomycin. The cells were incubated at 37° C. for 48 hours. Neutral red was added on the agarose to stain the live cells. The plaques were counted and reported as pfu per mL. Mean pfu was determined after averaging the number of pfu from different dilutions. Student's t-tests were used to statistically analyze differences between the groups; a p-value lower than 0.005 was used as the threshold for a significant difference.
To assess the efficacy of SD-29 on the HSV-1 proliferation, a plaque assay was performed. We wanted to quantitatively assess whether SD-29 could inhibit viral replication. Because HSV-1 was able to enter cultured HEp-2 cells, we evaluated whether this entry led to productive virus replication.
In Table 1, confluent monolayers of HEp-2 cells were infected with serially diluted HSV-1 virus and were fixed and Giemsa stained at 0, 6, 12, and 24 hr post infection. The numbers of plaques were visualized. The number of plaques formed post infection decreased in the presence of SD-29 in a time-dependent manner.

HSV1-Luc (R8411) = assay: HSV1-Luc bioluminescence luciferase assay in HEp-2 cells; type: cell-based, HSV-1; conditions: 10 μM
Protocol: (A) Hep-2 cells were incubated with the indicated compounds in the presence of HSV1-Luc virus at a concentration of 4×10^6 pfu/ml media. (B) Quantification of the luciferase signal from the samples in panel (A). Signals from three replicates from two separate experiments were combined to generate the average and the standard error bar.
(§1) To 80-90% confluent HEp-2 cells, HSV-1-Luc (R8411) are added at a concentration of 2×10e^6 pfu/ml along with indicated concentration of inhibitor compounds. After the described incubation period, luciferase activity is evaluated from bioluminescence images acquired by a Perkin Elmer IVIS Spectrum Imaging system immediately after adding luciferase substrate (D-luciferin, Gold Bio Technology) at a concentration of 400 μg/mL in medium. Bioluminescence intensity in different wells is quantified in units of photons per second per centimetre squared per steradian (p/s/cm^2/sr) by drawing a polygonal region of interest over the signals in images using Living Image 3.0 software (Caliper Life Sciences).
as §1, with “cells, HSV1-Luc” for “cells, HSV-1-Luc”, “(R8411) was” for “(R8411) are”, “activity was” for “activity is”, “wells was” for “wells is”, “per centimeter” for “per centimetre”
To visualize the effect of the drugs on the proliferation of HSV-1, a luciferase tagged HSV-1 F strain expressing luciferase (R8411 mutant) under the control of ICP27 promoter was obtained [Horsburgh B C, Hubinette M M, Tufaro F. Genetic manipulation of herpes simplex virus using bacterial artificial chromosomes. Methods Enzymol. 1999; 306:337-52]. […] The same samples after incubation of 48 h were used to assay for HSV-1 ICP0 and RACK1 protein expression (B of FIG. 5). Depletion of RACK1 by the compounds correlated with the depletion of the viral ICP0 protein confirming earlier results shown in B of FIG. 3.

T1 sequence (Q6L4F8 whole entry): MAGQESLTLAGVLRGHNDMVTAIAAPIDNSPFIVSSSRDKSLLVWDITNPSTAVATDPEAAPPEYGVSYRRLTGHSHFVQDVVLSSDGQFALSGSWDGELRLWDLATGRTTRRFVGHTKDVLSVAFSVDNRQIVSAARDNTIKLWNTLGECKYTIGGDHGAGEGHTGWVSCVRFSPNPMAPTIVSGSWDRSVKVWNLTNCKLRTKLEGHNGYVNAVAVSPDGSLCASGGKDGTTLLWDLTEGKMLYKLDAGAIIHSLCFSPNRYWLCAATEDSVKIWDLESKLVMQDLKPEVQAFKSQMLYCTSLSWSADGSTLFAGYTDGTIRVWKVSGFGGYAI

SMILES | ICP0 mRNA level (HSV-1 ICP0) | Kd [1] | HEp-2 Cell viability, Mean (HEp-2 cells; 10 μM) | HEp-2 Cell viability, Mean (HEp-2 cells; 100 μM) | RACK1 protein expression under salt stress (RACK1A protein) | Plaque formation unit (HSV-1; 0 hpi) | Plaque formation unit (HSV-1; 6 hpi) | Plaque formation unit (HSV-1; 12 hpi) | Plaque formation unit (HSV-1; 24 hpi) | HSV1-Luc proliferation (HSV1-Luc (R8411))
COc1ccc(-c2nnc(SCC(=O)O)n2N)cc1 [SD29-12] | essentially showed the same level of ICP0 mRNA | 58 µM | 92.7% | 97.7% | not | 0 ± 0 PFU/mL | 3.8 ± 0.07 × 10^2 PFU/mL | 3.6 ± 0.04 × 10^3 PFU/mL | 2.6 ± 0.03 × 10^6 PFU/mL | 
Nc1nc2c(ncn2COCCO)c(=O)[nH]1 [acyclovir, reference compound] |  |  |  |  |  |  |  |  |  | showed inhibition of the HSV1-Luc proliferation
